Data: US20250082652A1, “SIGNALLING-PATHWAY INHIBITOR COMBINATIONS FOR USE IN THE TREATMENT OF CANCER DISEASES” (UNIVERSITÄT ZU KÖLN, priority 2022, published 2025)

Columns and labels:
Type in all cases: cell-based
[1] = system: murine cancer cell lines M108, M191, BSQ10, BSQ12.4, BSQ27, BWQ89.3; experiment: Cell viability (CellTiterGlo), IKK2 inhibitors with or without Nec1s and/or ABT-199, FIG. 3 A-F; conditions: 72 hrs; for synergistic killing of cancer cell lines (cell viability): ABT-199 combined with an IKK2 inhibitor (ML120B, BI605906 or PS1145), FIG. 3
Protocol: (§1) Murine (A-F) and human (G) cell lines were treated with IKK2 inhibitors in the absence or presence of a RIPK1 inhibitor and/or a BCL-2 inhibitor as indicated. Cell viability was measured after 72 hrs using CellTiterGlo assay. The data points represent mean values of independent experiments. A. The murine cell line M108 was treated with the IKK2 inhibitors ML120B, BI605906 and PS1145 in the absence or presence of the RIPK1 inhibitor Nec1s (10 μM or 20 μM, as indicated) and/or the BCL-2 inhibitor ABT-199 (125 nM or 250 nM as indicated). B. The murine cell line M191 was treated with the IKK2 inhibitors ML120B, PS1145 and BI605906 in the absence or presence of the RIPK1 inhibitor Nec1s (10 μM or 20 μM, as indicated) and/or the BCL-2 inhibitor ABT-199 (125 nM or 250 nM as indicated). C. The murine cell line BSQ10 was treated with the IKK2 inhibitors ML120B, PS1145 and BI605906 in the absence or presence of the RIPK1 inhibitor Nec1s (10 μM or 20 μM, as indicated) and/or the BCL-2 inhibitor ABT-199 (125 nM or 250 nM as indicated). D. The murine cell line BSQ12.4 was treated with the IKK2 inhibitors ML120B, PS1145 and BI605906 in the absence or presence of the RIPK1 inhibitor Nec1s (10 μM or 20 μM, as indicated) and/or the BCL-2 inhibitor ABT-199 (125 nM or 250 nM as indicated). E. The murine cell line BSQ27 was treated with the IKK2 inhibitors ML120B, PS1145 and BI605906 in the absence or presence of the RIPK1 inhibitor Nec1s (10 μM or 20 μM, as indicated) and/or the BCL-2 inhibitor ABT-199 (125 nM or 250 nM as indicated). F. The murine cell line BWQ89.3 was treated with the IKK2 inhibitors ML120B, PS1145 and BI605906 in the absence or presence of the RIPK1 inhibitor Nec1s (10 μM or 20 μM, as indicated) and/or the BCL-2 inhibitor ABT-199 (125 nM or 250 nM as indicated). G. The human cell line HBL1 was treated with the IKK2 inhibitors ML120B, PS1145 and BI605906 in the absence or presence of the RIPK1 inhibitor Nec1s (10 μM or 20 μM, as indicated) and/or the BCL-2 inhibitor ABT-199 (125 nM or 250 nM as indicated).
(§2) The murine MBC M-191, M-190, M-108, and M-552 cell lines were generated by adopting cells from murine Myd88p.L252P/wt;R26LSL.BCL2/wt;CD19Cre/wt tumors to cell culture conditions. BSQ10, BSQ12.4 and BSQ27 are stable cell lines generated from Cd79 bp.Y195H/wt;Myd88p.L252P/wt;R26LSL.BCL2/wt;CD19Cre/wt tumors. BWQ89.3 is a stable cell line derived from a murine Prdm1flox/flox;Myd88p.L252P/wt;R26LSL.BCL2/wt;CD19Cre/wt tumor. The MBC cell lines are derived from tumors spontaneously developing in mice that B cell-specifically express the Myd88 p.L252P mutation (the murine orthologue of the human p.L265P) from the endogenous locus in combination with a strong BCL2 overexpression derived from a Rosa26 knock-in allele. Both MYD88 mutations and BCL2 overexpression are frequently found in ABC-DLBCL and Myd88p.L252P/wt;R26LSL.BCL2/wt;CD19Cre/wt animals (abbreviated MBC) develop an ABC-DLBCL-like disease with high NF-kB activation (17).
Murine cell lines (FIG. 3 A-F) were cultured in DMEM media (Gibco) containing 10% FCS, 1% penicillin/[…] (Gibco), 6 ml L-glutamine (200 mM, Gibco), 6 ml sodium pyruvate (100 mM, Gibco), 6 ml HEPES (1 M), 6 ml non-essential amino acids (100×, Gibco), and 50 μM 2-mercaptoethanol. […] Cell viability of murine and human cell lines was measured after 72 hrs using CellTiterGlo assay. […]

[2] = system: human DLBCL cell line HBL1; experiment: Cell viability (CellTiterGlo), IKK2 inhibitors with or without Nec1s and/or ABT-199, FIG. 3 G; conditions: 72 hrs; for synergistic killing of cancer cell lines (cell viability): ABT-199 combined with an IKK2 inhibitor (ML120B, BI605906 or PS1145), HBL1, FIG. 3
Protocol: as §1
Murine cell lines (FIG. 3 A-F) were cultured in DMEM media (Gibco) containing 10% FCS, 1% penicillin/[…] (Gibco), 6 ml L-glutamine (200 mM, Gibco), 6 ml sodium pyruvate (100 mM, Gibco), 6 ml HEPES (1 M), 6 ml non-essential amino acids (100×, Gibco), and 50 μM 2-mercaptoethanol. Cells were plated in opaque 384-well plates at a density of 100.000 cells/ml (30 μl of culture volume) and treated with the indicated compounds dissolved in DMSO using a Tecan D300e digital dispenser. The human DLBCL cell line HBL1 (FIG. 3 G) was cultured in RPMI (Gibco) containing 20% FCS (Gibco) and 1% penicillin/[…] (Gibco) and treated with the indicated compounds dissolved in DMSO using a Tecan D300e digital dispenser. Cell viability of murine and human cell lines was measured after 72 hrs using CellTiterGlo assay. The data points represent mean values of independent experiments.

[3] = system: murine MBC cell lines M-108, M-191, and M-552; experiment: Cell viability (CellTiter-Glo), ABT-199 and/or ML120B; conditions: ABT-199 combined with ML120B, 72 hours, M108, M191 and M552, FIG. 2
Protocol: The murine MBC lines M-191, M-190, M-108 and M-552 were treated with ABT-199 and/or IKK2-inhibitor ML120B at the indicated doses for 72 hours and cell viability was measured by CellTiter-Glo®. The illustrations in FIG. 2 represent two independent experiments. To test the pharmacological inhibition potential of IKK2 and BCL-2 to kill lymphoma cells, MBC M-191, M-190, M-108, and M-552 cell lines were cultured in DMEM media (Gibco) containing 10% FCS, 1% penicillin/[…] (Gibco), 6 ml L-glutamine (200 mM, Gibco), 6 ml sodium pyruvate (100 mM, Gibco), 6 ml HEPES (1 M), 6 ml non-essential amino acids (100×, Gibco), 50 μM 2-mercaptoethanol. Then, cell viability assays were used to test the pharmacological inhibition potential of IKK2 (using the inhibitor LY2409881) and BCL-2 (using the inhibitor ABT-199) to kill the MBC M-191, M-190, M-108, and M-552 cell lines. […] After an incubation time of 15 minutes, the luminescence signal was read on a plate reader (Tecan). All conditions were measured in triplicate, randomized across the plate and the DMSO concentration in each well was adjusted to maximum DMSO concentration (0.4%) in all wells, and normalized to untreated conditions. […]

[4] = system: MBC M-191, M-190, M-108, and M-552 cell lines (murine ABC-DLBCL cell lines); experiment: Cell viability (CellTiter-Glo), single inhibitors; conditions: single agent, 72 hours, FIG. 1
Protocol: The murine MBC lines M-191, M-190, M-108 and M-552 were treated with (A) the IKK2 inhibitor LY-2409881 (0, 0.185, 0.556, 1.667, 5, 15 μM) or (B) the BCL-2 inhibitor ABT-199 (0, 11.1, 33.3, 100, 300 nM) for 72 hours and cell viability was measured by CellTiter-Glo®. The illustrations in FIG. 1 represent three independent experiments.
as §2, with “(17). […]” for “(17).”

[5] = system: IL-1β production by macrophages; experiment: LPS-induced production of IL-1β by macrophages treated with IKK inhibitors; conditions: pharmacological RIPK1 inhibition

What does the source list for `CN1C(=O)NC(Cc2c[nH]c3c(Cl)cccc23)C1=O` (centres unmarked) [Nec1s, 5-((7-chloro-1H-indol-3-yl)methyl)-3-methyl-2,4-imidazolidinedione]?
effect of simultaneous RIPK1 inhibitor treatment on the synergizing killing effect of ABT-199 and IKK2 inhibitors ([1]; Nec1s 10 μM or 20 μM): not prevented; effect of simultaneous RIPK1 inhibitor treatment on the synergizing killing effect of ABT-199 and IKK2 inhibitors ([2]; Nec1s 10 μM or 20 μM, HBL1): not prevented

What does the source list for `COc1c(Cl)cc2c([nH]c3cnccc32)c1NC(=O)c1cccnc1C` [ML120B, N-(6-chloro-7-methoxy-9H-beta-carbolin-8-yl)-2-methylnicotinamide]?
synergistic killing of cancer cell lines (cell viability) [1]: synergize to potentiate killing; synergistic killing of cancer cell lines (cell viability) [2]: synergize to potentiate killing; synergistic killing of cancer cell lines (cell viability) [3]: synergize to potentiate killing

Which “synergistic killing of cancer cell lines (cell viability)” value (“synergistic killing” below) [1] does the source give for `CCC(F)(F)c1cc(N2CCC(S(C)(=O)=O)CC2)nc2sc(C(N)=O)c(N)c12` [BI605906] here?
Its value is “synergize to potentiate killing”.

What about the “synergistic killing” value [2] of the same molecule?
The value was “synergize to potentiate killing”.

Which “synergistic killing” value [1] does the source give for `CC1(C)CCC(CN2CCN(c3ccc(C(=O)NS(=O)(=O)c4ccc(NCC5CCOCC5)c([N+](=O)[O-])c4)c(Oc4cnc5[nH]ccc5c4)c3)CC2)=C(c2ccc(Cl)cc2)C1` [ABT-199] here?
Its value is “synergize to potentiate killing”.

What about the “synergistic killing” value [2] of the same molecule?
The value was “synergize to potentiate killing”.

What about the “synergistic killing” value [3] of the same molecule?
The value was “synergize to potentiate killing”.

What about the “killing of lymphoma cells (cell viability)” value [4] of the same molecule?
The value was “strong toxicity”.

Which results are given for `O=C(Nc1cc(Cl)cc2c1[nH]c1cnccc12)c1cccnc1` [PS1145]?
synergistic killing of cancer cell lines (cell viability) [1]: synergize to potentiate killing; synergistic killing of cancer cell lines (cell viability) [2]: synergize to potentiate killing

`CN1C(=O)C(Cc2c[nH]c3ccccc23)NC1=S` (centres unmarked) [Necrostatin-1, 5-(1H-indol-3-ylmethyl)-3-methyl-2-thioxo-4-imidazolidinone] was tested. Which “LPS-induced production of IL-1β” value [5] did it give?
Its value is “strongly diminishes”.
